Experimental data as given in patent US9926281B2 (priority 2014, dated 2018).
Like-named read-outs stand apart in the source and are kept apart here. Blank lines part the entries; values can stand above or below the compound they belong to.

Legend:
[1] = target: rnADAMTS-5 (1-564-6H) (Rattus norvegicus, UniProt Q6TY19); conditions: read-out: Rat ADAMTS-5 potency IC50
[2] = target: T1, human ADAMTS-5 (Homo sapiens (Human), UniProt Q9UNA0); conditions: read-out: hADAMTS-5 potency IC50
[3] = target: human TACE (Homo sapiens (Human), UniProt P78536); conditions: read-out: TACE potency IC50
Sequence of human TACE (P78536 whole entry, looked up, change not shown): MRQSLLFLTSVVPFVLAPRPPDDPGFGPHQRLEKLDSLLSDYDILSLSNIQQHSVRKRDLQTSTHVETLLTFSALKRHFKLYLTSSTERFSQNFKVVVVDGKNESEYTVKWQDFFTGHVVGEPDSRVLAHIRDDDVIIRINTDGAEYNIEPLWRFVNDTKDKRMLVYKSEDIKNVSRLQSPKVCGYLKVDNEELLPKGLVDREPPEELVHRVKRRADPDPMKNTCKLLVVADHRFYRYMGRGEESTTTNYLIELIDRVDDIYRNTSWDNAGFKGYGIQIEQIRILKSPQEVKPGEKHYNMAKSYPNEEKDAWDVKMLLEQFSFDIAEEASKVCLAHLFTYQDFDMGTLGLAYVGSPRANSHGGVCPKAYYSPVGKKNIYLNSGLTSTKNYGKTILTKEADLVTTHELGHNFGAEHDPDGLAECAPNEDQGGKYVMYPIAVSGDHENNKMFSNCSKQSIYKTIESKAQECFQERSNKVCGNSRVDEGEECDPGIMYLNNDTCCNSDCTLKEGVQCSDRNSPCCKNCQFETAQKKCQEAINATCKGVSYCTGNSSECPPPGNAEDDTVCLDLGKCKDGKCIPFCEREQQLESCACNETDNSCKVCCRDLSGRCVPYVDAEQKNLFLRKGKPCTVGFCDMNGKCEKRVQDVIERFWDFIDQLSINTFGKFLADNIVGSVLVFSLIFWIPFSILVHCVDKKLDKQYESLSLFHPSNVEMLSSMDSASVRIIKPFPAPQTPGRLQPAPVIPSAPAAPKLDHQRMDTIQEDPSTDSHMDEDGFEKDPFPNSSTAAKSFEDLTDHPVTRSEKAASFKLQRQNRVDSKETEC

[4] = target: human MMP13 (Homo sapiens (Human), UniProt P45452); conditions: read-out: hMMP-13 potency IC50
Experimental: Human MMP13 is preactivated by incubated the enzyme in the same buffer complemented with 1 mM freshly prepared p-Aminophenylmercuric acetate (AMPA) for 1 hour at 37° C.

[5] = target: T1, human ADAMTS-5; conditions: read-out: hADAMTS-5 potency IC50; remark: listed apart in the source
Experimental: Finally, the fluorescence is read on the Envision (Perkin Elmer) after an incubation of 90 min at 37° C.

T1 sequence (Q9UNA0 262-930): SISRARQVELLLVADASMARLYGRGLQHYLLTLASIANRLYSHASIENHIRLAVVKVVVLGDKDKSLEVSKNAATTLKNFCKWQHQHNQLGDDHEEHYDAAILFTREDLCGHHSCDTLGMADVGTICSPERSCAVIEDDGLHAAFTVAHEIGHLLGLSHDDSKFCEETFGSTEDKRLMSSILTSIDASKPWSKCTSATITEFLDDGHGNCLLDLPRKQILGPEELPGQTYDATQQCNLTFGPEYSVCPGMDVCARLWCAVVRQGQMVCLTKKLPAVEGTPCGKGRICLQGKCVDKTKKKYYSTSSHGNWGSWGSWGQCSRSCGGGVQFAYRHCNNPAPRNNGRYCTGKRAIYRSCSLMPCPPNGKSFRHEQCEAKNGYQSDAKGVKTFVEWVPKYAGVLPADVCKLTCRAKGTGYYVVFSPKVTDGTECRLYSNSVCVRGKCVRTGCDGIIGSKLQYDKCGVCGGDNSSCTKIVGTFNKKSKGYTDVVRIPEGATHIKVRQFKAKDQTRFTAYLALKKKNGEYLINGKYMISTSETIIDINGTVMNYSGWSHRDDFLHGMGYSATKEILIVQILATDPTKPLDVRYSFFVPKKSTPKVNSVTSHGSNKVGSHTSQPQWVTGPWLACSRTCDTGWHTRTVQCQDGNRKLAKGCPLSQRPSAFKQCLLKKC

IC50 [1]: 101 nM | IC50 [2]: 78 nM | IC50 [3]: > 3330 nM
SMILES: O=C1NC(=O)C(CCC(=O)N2CCN(c3ccc(Cl)cc3)CC2)(c2ccccc2)N1 (stereo not shown) [compound 5, 5-[3-[4-(4-chlorophenyl)piperazin-1-yl]-3-oxo-propyl]-5-phenyl-imidazolidine-2,4-dione]

SMILES: O=C1NC(=O)C(CCC(=O)N2CCN(c3ccc4ccccc4n3)CC2)(c2ccccc2)N1 (stereo not shown) [compound 15, 5-[3-oxo-3-[4-(2-quinolyl)piperazin-1-yl]propyl]-5-phenyl-imidazolidine-2,4-dione]
IC50 [1]: > 4000 nM | IC50 [2]: > 4000 nM

SMILES: Cc1cc(Cl)ccc1N1CCN(C(=O)CCC2(C)NC(=O)NC2=O)CC1 (stereo not shown) [compound 17, 5-[3-[4-(4-chloro-2-methyl-phenyl)piperazin-1-yl]-3-oxo-propyl]-5-methyl-imidazolidine-2,4-dione]
IC50 [1]: > 3940 nM | IC50 [2]: 2840 nM | IC50 [3]: > 4000 nM | IC50 [4]: > 20 µM

SMILES: CC1(CCC(=O)N2CCN(c3ccccc3Cl)CC2)NC(=O)NC1=O (stereo not shown) [compound 19, 5-[3-[4-(2-chlorophenyl)piperazin-1-yl]-3-oxo-propyl]-5-methyl-imidazolidine-2,4-dione]
IC50 [1]: > 4000 nM | IC50 [2]: > 4000 nM | IC50 [5]: > 4 µM

SMILES: Cc1cccc(C)c1N1CCN(C(=O)CCC2(c3ccccc3)NC(=O)NC2=O)CC1 (stereo not shown) [compound 22, 5-[3-[4-(2,6-dimethylphenyl)piperazin-1-yl]-3-oxo-propyl]-5-phenyl-imidazolidine-2,4-dione]
IC50 [1]: 3900 nM | IC50 [2]: > 3790 nM

SMILES: Cc1cc(N2CCN(C(=O)CCC3(c4ccccc4)NC(=O)NC3=O)CC2)ccc1[N+](=O)[O-] (stereo not shown) [compound 23, 5-[3-[4-(3-methyl-4-nitro-phenyl)piperazin-1-yl]-3-oxo-propyl]-5-phenyl-imidazolidine-2,4-dione]
IC50 [1]: 158 nM | IC50 [2]: 157 nM

SMILES: Cc1ccc(Cl)cc1N1CCN(C(=O)CCC2(c3ccccc3)NC(=O)NC2=O)CC1 (stereo not shown) [compound 24, 5-[3-[4-(5-chloro-2-methyl-phenyl)piperazin-1-yl]-3-oxo-propyl]-5-phenyl-imidazolidine-2,4-dione]
IC50 [1]: 132 nM | IC50 [2]: 93 nM | IC50 [3]: 298 nM

SMILES: Cc1ccc(Cl)cc1N1CCN(C(=O)CCC2(C(C)C)NC(=O)NC2=O)CC1 (stereo not shown) [compound 33, 5-[3-[4-(5-chloro-2-methyl-phenyl)piperazin-1-yl]-3-oxo-propyl]-5-isopropyl-imidazolidine-2,4-dione]
IC50 [1]: 178 nM | IC50 [2]: 134 nM | IC50 [3]: 429 nM

SMILES: Cc1ccccc1N1CCN(C(=O)CCC2(C3CC3)NC(=O)NC2=O)CC1 (stereo not shown) [compound 35, 5-cyclopropyl-5-[3-[4-(o-tolyl)piperazin-1-yl]-3-oxo-propyl]imidazolidine-2,4-dione]
IC50 [1]: 103 nM | IC50 [2]: 99 nM | IC50 [3]: > 4000 nM | IC50 [4]: > 20 µM

SMILES: Cc1ccc(Cl)cc1N1CCN(C(=O)CCC2(c3cccnc3)NC(=O)NC2=O)CC1 (stereo not shown) [compound 46, 5-[3-[4-(5-chloro-2-methyl-phenyl)piperazin-1-yl]-3-oxo-propyl]-5-(3-pyridyl)imidazolidine-2,4-dione]
IC50 [1]: 42 nM | IC50 [2]: 35 nM | IC50 [3]: 137 nM

SMILES: CC1(CCC(=O)N2CCN(c3ccc(Cl)c(F)c3)CC2)NC(=O)NC1=O (stereo not shown) [compound 49, 5-[3-[4-(4-chloro-3-fluoro-phenyl)piperazin-1-yl]-3-oxo-propyl]-5-methyl-imidazolidine-2,4-dione]
IC50 [1]: 141 nM | IC50 [2]: 127 nM | IC50 [3]: > 20000 nM

SMILES: CC(C)C1(CCC(=O)N2CCN(c3cc(Cl)cc(Cl)c3)CC2)NC(=O)NC1=O (stereo not shown) [compound 54, 5-[3-[4-(3,5-dichlorophenyl)piperazin-1-yl]-3-oxo-propyl]-5-isopropyl-imidazolidine-2,4-dione]
IC50 [1]: 91 nM | IC50 [2]: 61 nM | IC50 [3]: 2270 nM | IC50 [4]: > 20 µM

SMILES: O=C1NC(=O)C(CCC(=O)N2CCN(c3cccc(Cl)c3)CC2)(c2cccnc2)N1 (stereo not shown) [compound 56, 5-[3-[4-(3-chlorophenyl)piperazin-1-yl]-3-oxo-propyl]-5-(3-pyridyl)imidazolidine-2,4-dione]
IC50 [1]: 72 nM | IC50 [2]: 38 nM | IC50 [3]: 3190 nM

SMILES: Cc1cccc(N2CCN(C(=O)CCC3(C4CC4)NC(=O)NC3=O)CC2)c1C (stereo not shown) [compound 57, 5-cyclopropyl-5-[3-[4-(2,3-dimethylphenyl)piperazin-1-yl]-3-oxo-propyl]imidazolidine-2,4-dione]
IC50 [1]: 117 nM | IC50 [2]: 93 nM | IC50 [3]: > 12000 nM

SMILES: O=C1NC(=O)C(CCC(=O)N2CCN(c3ccccc3)CC2)(c2cccnc2)N1 (stereo not shown) [compound 68, 5-[3-oxo-3-(4-phenylpiperazin-1-yl)propyl]-5-(3-pyridyl)imidazolidine-2,4-dione]
IC50 [1]: 200 nM | IC50 [2]: 169 nM

SMILES: Cc1cccc(N2CCN(C(=O)CCC3(c4cccnc4)NC(=O)NC3=O)CC2)c1C (stereo not shown) [compound 69, 5-[3-[4-(2,3-dimethylphenyl)piperazin-1-yl]-3-oxo-propyl]-5-(3-pyridyl)imidazolidine-2,4-dione]
IC50 [1]: 185 nM | IC50 [2]: 178 nM

SMILES: Cc1ccc(Cl)cc1N1CCN(C(=O)CCC2(C3CCC3)NC(=O)NC2=O)CC1 (stereo not shown) [compound 71, 5-[3-[4-(5-chloro-2-methyl-phenyl)piperazin-1-yl]-3-oxo-propyl]-5-cyclobutyl-imidazolidine-2,4-dione]
IC50 [1]: 198 nM | IC50 [2]: 200 nM

SMILES: O=C1NC(=O)C(CCC(=O)N2CCN(c3cccc(Cl)c3)CC2)(C2CCCCC2)N1 (stereo not shown) [compound 72, 5-[3-[4-(3-chlorophenyl)piperazin-1-yl]-3-oxo-propyl]-5-cyclohexyl-imidazolidine-2,4-dione]
IC50 [1]: 282 nM | IC50 [2]: 264 nM

SMILES: O=C1NC(=O)C(CCC(=O)N2CCN(c3cccc(Cl)c3)CC2)(c2ccc(Cl)cc2)N1 (stereo not shown) [compound 74, 5-(4-chlorophenyl)-5-[3-[4-(3-chlorophenyl)piperazin-1-yl]-3-oxo-propyl]imidazolidine-2,4-dione]
IC50 [1]: 106 nM | IC50 [2]: 89 nM | IC50 [4]: 2.66 µM

SMILES: Cc1ccc(C2(CCC(=O)N3CCN(c4cc(Cl)ccc4C)CC3)NC(=O)NC2=O)cc1 (stereo not shown) [compound 77, 5-[3-[4-(5-chloro-2-methyl-phenyl)piperazin-1-yl]-3-oxo-propyl]-5-(p-tolyl)imidazolidine-2,4-dione]
IC50 [1]: 169 nM | IC50 [2]: 107 nM

SMILES: Cc1ccccc1N1CCN(C(=O)CCC2(c3ccc(OCCN(C)C)cc3)NC(=O)NC2=O)CC1 (stereo not shown) [compound 81, 5-[4-(2-dimethylaminoethyloxy)phenyl]-5-[3-[4-(o-toyl)piperazin-1-yl]-3-oxo-propyl]imidazolidine-2,4-dione]
IC50 [1]: 827 nM | IC50 [2]: 681 nM

SMILES: Cc1ccccc1N1CCN(C(=O)CCC2(c3ccc(CN(C)C)cc3)NC(=O)NC2=O)CC1 (stereo not shown) [compound 82, 5-[4-(dimethylaminomethyl)phenyl]-5-[3-[4-(o-toly)piperazin-1-yl]-3-oxo-propyl]imidazolidine-2,4-dione]
IC50 [1]: 2090 nM | IC50 [2]: 1740 nM

SMILES: CC1(CCC(=O)N2CCN(c3cncc(F)c3)CC2)NC(=O)NC1=O (stereo not shown) [compound 84, 5-[3-[4-(5-fluoro-3-pyridyl)piperazin-1-yl]-3-oxo-propyl]-5-methyl-imidazolidine-2,4-dione]
IC50 [1]: 637 nM | IC50 [2]: 815 nM

SMILES: Cc1cccc(N2CCN(C(=O)CCC3(c4ccccn4)NC(=O)NC3=O)CC2)c1C (stereo not shown) [compound 101, 5-[3-[4-(2,3-dimethylphenyl)piperazin-1-yl]-3-oxo-propyl]-5-(2-pyridyl)imidazolidine-2,4-dione]
IC50 [1]: 165 nM | IC50 [2]: 154 nM

SMILES: Cc1ccc(Cl)cc1N1CCN(C(=O)CCC2(C(C)(C)C)NC(=O)NC2=O)CC1 (stereo not shown) [compound 108, 5-tert-butyl-5-[3-[4-(5-chloro-2-methyl-phenyl)piperazin-1-yl]-3-oxo-propyl]imidazolidine-2,4-dione]
IC50 [1]: 410 nM | IC50 [2]: 320 nM

SMILES: Cc1ccc(Cl)cc1N1CCN(C(=O)CCC2(C3CCCC3)NC(=O)NC2=O)CC1 (stereo not shown) [compound 110, 5-[3-[4-(5-chloro-2-methyl-phenyl)piperazin-1-yl]-3-oxo-propyl]-5-cyclopentyl-imidazolidine-2,4-dione]
IC50 [1]: 299 nM | IC50 [2]: 297 nM

SMILES: CC1CN(C(=O)CCC2(C3CC3)NC(=O)NC2=O)CCN1c1cc(Cl)cc(Cl)c1 (stereo not shown) [compound 130, 5-cyclopropyl-5-[3-[4-(3,5-dichlorophenyl)-3-methyl-piperazin-1-yl]-3-oxo-propyl]imidazolidine-2,4-dione]
IC50 [2]: 126 nM | IC50 [3]: > 4000 nM | IC50 [4]: > 20 µM

SMILES: COc1ccc(Cl)cc1C1(CCC(=O)N2CCN(c3cccc(Cl)c3)CC2)NC(=O)NC1=O (stereo not shown) [compound 132, 5-(5-chloro-2-methoxy-phenyl)-5-[3-[4-(3-chlorophenyl)piperazin-1-yl]-3-oxo-propyl]imidazolidine-2,4-dione]
IC50 [2]: 37 nM | IC50 [3]: 348 nM | IC50 [4]: 3.29 µM

SMILES: COc1ccc(Cl)cc1C1(CCC(=O)N2CCN(c3cc(Cl)ccc3C)CC2)NC(=O)NC1=O (stereo not shown) [compound 133, 5-(5-chloro-2-methoxy-phenyl)-5-[3-[4-(5-chloro-2-methyl-phenyl)piperazin-1-yl]-3-oxo-propyl]imidazolidine-2,4-dione]
IC50 [2]: 108 nM | IC50 [3]: 195 nM | IC50 [4]: > 20 µM

SMILES: C[C@@H]1CN(C(=O)CCC2(c3cccnc3)NC(=O)NC2=O)CCN1c1ccccc1 (stereo partly drawn) [compound 134, 5-[3-[(3R)-3-methyl-4-phenyl-piperazin-1-yl]-3-oxo-propyl]-5-(3-pyridyl)imidazolidine-2,4-dione]
IC50 [2]: 1870 nM | IC50 [3]: > 20000 nM | IC50 [4]: > 20 µM

SMILES: Cc1c(Cl)cc(Cl)cc1N1CCN(C(=O)CCC2(C)NC(=O)NC2=O)CC1 (stereo not shown) [compound 139, 5-[3-[4-(3,5-dichloro-2-methyl-phenyl)piperazin-1-yl]-3-oxo-propyl]-5-methyl-imidazolidine-2,4-dione]
IC50 [2]: 231 nM | IC50 [3]: 1320 nM | IC50 [4]: > 20 µM
